Measured values: US10988459B2 (priority 2015, dated 2021)
pKi: −log10 of the molar value.

The compounds below were run against human RIP1 kinase domain (2-375) (Homo sapiens (Human), UniProt Q13546) (assay: biochemical). Details: Table 1; apparent Ki (Morrison tight-binding fit); 50 nM RIP1 kinase domain, 50 uM ATP, 2 hours incubation; read-out: RIP1 Ki.
Type: biochemical
Procedure, shortened: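 50 nM purified kinase domain from baculovirus-infected insect cells, incubated 2 h with compound in 50 mM Hepes pH 7.5, 30 mM MgCl2, 1 mM DTT, 50 uM ATP, 0.002% Brij-35, 0.5% DMSO. ADP formation read by Transcreener FP at 633 nm excitation. Ki^app fitted with the Morrison tight-binding equation.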

human RIP1 kinase domain (2-375), sequence (Q13546 2-375): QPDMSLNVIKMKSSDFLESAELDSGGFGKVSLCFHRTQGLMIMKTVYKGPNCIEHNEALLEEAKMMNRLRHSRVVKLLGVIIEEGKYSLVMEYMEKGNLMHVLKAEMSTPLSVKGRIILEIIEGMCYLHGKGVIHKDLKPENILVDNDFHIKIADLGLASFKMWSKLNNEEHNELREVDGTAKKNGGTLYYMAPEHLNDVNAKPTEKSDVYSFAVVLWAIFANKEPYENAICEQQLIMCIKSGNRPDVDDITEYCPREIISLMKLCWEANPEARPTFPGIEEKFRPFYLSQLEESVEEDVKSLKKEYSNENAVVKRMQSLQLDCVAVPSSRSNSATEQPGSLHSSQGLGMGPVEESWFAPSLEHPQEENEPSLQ

Compound | pKi
CN1C(=O)C(NC(=O)c2nnc(Cc3ccccc3)[nH]2)CCn2nc(C3CC3)cc21 (centres unmarked) [Example 29, 5-benzyl-N-(2-cyclopropyl-4-methyl-5-oxo-7,8-dihydro-6H-pyrazolo[1,5-a][1,3]diazepin-6-yl)-4H-1,2,4-triazole-3-carboxamide] | 6.93
Cc1cc2n(n1)CCC(NC(=O)c1nnc(Cc3ccccc3)[nH]1)C(=O)N2C (centres unmarked) [Example 28, 5-benzyl-N-(2,4-dimethyl-5-oxo-5,6,7,8-tetrahydro-4H-pyrazolo[1,5-a][1,3]diazepin-6-yl)-4H-1,2,4-triazole-3-carboxamide] | 6.86
CC1CCc2noc(C(=O)N[C@H]3COc4ccccc4NC3=O)c2C1 (stereo partly drawn) [Example 62, 5-methyl-N-((S)-4-oxo-2,3,4,5-tetrahydrobenzo[b][1,4]oxazepin-3-yl)-4,5,6,7-tetrahydrobenzo[c]isoxazole-3-carboxamide] | 6.60
CC12Cc3[nH]nc(C(=O)N[C@H]4CCc5cc(Cl)ccc5NC4=O)c3CC1C2 (stereo partly drawn) [Example 50, N-((S)-7-chloro-2-oxo-2,3,4,5-tetrahydro-1H-benzo[b]azepin-3-yl)-5a-methyl-1,4,4a,5,5a,6-hexahydrocyclopropa[f]indazole-3-carboxamide] | 5.41

Same assay, conditions: Table 3; apparent Ki (Morrison tight-binding fit); 50 nM RIP1 kinase domain, 50 uM ATP, 2 hours incubation; read-out: Ki

Compound | pKi
CN1C(=O)[C@@H](NC(=O)c2ncn(Cc3ccccc3)n2)CCn2nccc21 [Example 334, (S)-1-benzyl-N-(4-methyl-5-oxo-5,6,7,8-tetrahydro-4H-pyrazolo[1,5-a][1,3]diazepin-6-yl)-1H-1,2,4-triazole-3-carboxamide] | 7.57

Same assay, conditions: Table 5; apparent Ki (Morrison tight-binding fit); 50 nM RIP1 kinase domain, 50 uM ATP, 2 hours incubation; read-out: Ki

pKi | Compound
6.57 | CC[C@]1(C)OCc2cnc(C(=O)N[C@H]3COc4ccccc4N(C)C3=O)cc21 (single isomer, unassigned) [Example 764]
7.11 | COCCOCCc1cc2n(n1)CC[C@H](NC(=O)c1ncn(Cc3ccccc3F)n1)C(=O)N2C [Example 760, 1-[(2-fluorophenyl)methyl]-N-[(6S)-2-[2(2-methoxyethoxy)ethyl]-4-methyl-5-oxo-7,8-dihydro-6H-pyrazolo[1,5-a][1,3]diazepin-6-yl]-1,2,4-triazole-3-carboxamide]
7.13 | CN1C(=O)[C@@H](NC(=O)c2nc3n(n2)CCN[C@@H]3c2ccccc2)COc2ccccc21 (single isomer, unassigned) [Example 729]
7.28 | CC(C)Cn1cc(-c2cc3n(n2)CCC(NC(=O)c2ncn(Cc4ccccc4)n2)C(=O)N3C)cn1 (racemic) [Example 699, 1-benzyl-N-[2-(1-isobutylpyrazol-4-yl)-4-methyl-5-oxo-7,8-dihydro-6H-pyrazolo[1,5-a][1,3]diazepin-6-yl]-1,2,4-triazole-3-carboxamide]
8.00 | CN1C(=O)[C@@H](NC(=O)c2cc3c(cn2)CO[C@]3(C)C(F)(F)F)COc2ccccc21 [Example 742, (1S)-1-methyl-N-[(3S)-5-methyl-4-oxo-2,3-dihydro-1,5-benzoxazepin-3-yl]-1-(trifluoromethyl)-3H-furo[3,4-c]pyridine-6-carboxamide]
7.44 | CN1C(=O)[C@@H](NC(=O)c2ncn(Cc3ccccc3)n2)CCn2nc(CCCN3CCC(F)(F)C3)cc21 [Example 739, 1-benzyl-N-[(6S)-2-[3-(3,3-difluoropyrrolidin-1-yl)propyl]-4-methyl-5-oxo-7,8-dihydro-6H-pyrazolo[1,5-a][1,3]diazepin-6-yl]-1,2,4-triazole-3-carboxamide]

Same assay, conditions: human RIP1 kinase domain (2-375), 50 uM ATP, 2 hours incubation, Transcreener ADP assay; read-out: RIP1 Ki

pKi | Compound
7.40 | CN1C(=O)[C@@H](NC(=O)c2ncn(Cc3ccccc3)n2)CCn2nc([C@H]3CC3(F)F)cc21 [Example 148, 1-benzyl-N-((S)-2-((R)-2,2-difluorocyclopropyl)-4-methyl-5-oxo-5,6,7,8-tetrahydro-4H-pyrazolo[1,5-a][1,3]diazepin-6-yl)-1H-1,2,4-triazole-3-carboxamide]

Same assay, conditions: human RIP1 kinase domain (2-375), Transcreener ADP assay, 50 uM ATP, 2 hours incubation; read-out: RIP1 Ki

Compound | pKi
CN1C(=O)[C@@H](NC(=O)c2nnn3c2CC(C(F)(F)C(F)(F)F)CC3)COc2ccccc21 (stereo partly drawn) [Example 277, N—((S)-5-methyl-4-oxo-2,3,4,5-tetrahydrobenzo[b][1,4]oxazepin-3-yl)-5-(perfluoroethyl)-4,5,6,7-tetrahydro-[1,2,3]triazolo[1,5-a]pyridine-3-carboxamide] | 7.62
Cc1cc2n(n1)CCC(NC(=O)c1ncn(CC3CCC3)n1)C(=O)N2C (centres unmarked) [Example 247, 1-(cyclobutylmethyl)-N-(2,4-dimethyl-5-oxo-5,6,7,8-tetrahydro-4H-pyrazolo[1,5-a][1,3]diazepin-6-yl)-1H-1,2,4-triazole-3-carboxamide] | 6.66

Same assay, conditions: tight-binding apparent inhibition constant; human RIP1 kinase domain (2-375) 50 nM, 50 uM ATP, 2 hours; read-out: Ki

pKi | Compound
6.44 | Cc1cc(F)c2c(c1)OC[C@H](NC(=O)c1nc3n(n1)CCO[C@@H]3c1ccccc1)C(=O)N2 [Example 643, (8R)-8-phenyl-N-[(3S)-6-fluoro-8-methyl-4-oxo-3,5-dihydro-2H-1,5-benzoxazepin-3-yl]-6,8-dihydro-5H-[1,2,4]triazolo[5,1-c][1,4]oxazine-2-carboxamide]
6.89 | Cc1nc(C)n2c1N(C)C(=O)[C@H](NC(=O)c1ncn(Cc3c(F)cccc3F)n1)CC2 [Example 597, 1-[(2,6-difluorophenyl)methyl]-N-(3R)-1,7,9-trimethyl-2-oxo-4,5-dihydro-3H-imidazo[1,5-a][1,3]diazepin-3-yl-1,2,4-triazole-3-carboxamide]
7.26 | CN1C(=O)[C@@H](NC(=O)c2nc3n(n2)[C@@H](c2cnn(C)c2)CCC3)COc2ccccc21 (racemic) [Example 407, (R)-5-(1-methyl-1H-pyrazol-4-yl)-N—((S)-5-methyl-4-oxo-2,3,4,5-tetrahydrobenzo[b][1,4]oxazepin-3-yl)-5,6,7,8-tetrahydro-[1,2,4]triazolo[1,5-a]pyridine-2-carboxamide]
7.32 | COc1ccccc1Cn1cnc(C(=O)N[C@H]2CCn3nc(C4CC4)cc3N(C)C2=O)n1 [Example 592]
7.52 | Cc1cn2c(n1)N(C)C(=O)[C@H](NC(=O)c1ncn(Cc3ccccc3)n1)CC2 (racemic) [Example 693, 1-benzyl-N-[rac-(7R)-2,9-dimethyl-8-oxo-6,7-dihydro-5H-imidazo[1,2-a][1,3]diazepin-7-yl]-1,2,4-triazole-3-carboxamide]
8.51 | O=C(N[C@H]1COc2cc(F)cc(F)c2NC1=O)c1nc2n(n1)[C@@H](c1ccccc1)CC2 [Example 621, (5R)-5-phenyl-N-[(3S)-6,8-difluoro-4-oxo-3,5-dihydro-2H-1,5-benzoxazepin-3-yl]-6,7-dihydro-5H-pyrrolo[1,2-b][1,2,4]triazole-2-carboxamide]
6.43 | CN1C(=O)[C@@H](NC(=O)c2ncn(Cc3ccccc3C#N)n2)CCn2nccc21 [Example 603, 1-[(2-cyanophenyl)methyl]-N-(6S)-4-methyl-5-oxo-7,8-dihydro-6H-pyrazolo[1,5-a][1,3]diazepin-6-yl-1,2,4-triazole-3-carboxamide]
6.51 | Cc1cc2n(n1)CC[C@H](NC(=O)c1ncn(CC3CCCCO3)n1)C(=O)N2C (stereo partly drawn) [Example 476, N-(6S)-2,4-dimethyl-5-oxo-7,8-dihydro-6H-pyrazolo[1,5-a][1,3]diazepin-6-yl-1-(tetrahydropyran-2-ylmethyl)-1,2,4-triazole-3-carboxamide]
8.01 | CN1C(=O)[C@@H](NC(=O)c2ncn(Cc3ccccc3)n2)CCn2nc(C[C@@H]3CC3(F)F)cc21 [Example 548, 1-benzyl-N-(6S)-4-methyl-5-oxo-2-[(1R)-2,2-difluorocyclopropylmethyl]-7,8-dihydro-6H-pyrazolo[1,5-a][1,3]diazepin-6-yl-1,2,4-triazole-3-carboxamide]
